From US20070142266A1, “Combination comprising a P-gp inhibitor and an anti-epileptic drug” (priority 2001, published 2007)

Experiments:
[1] = tested on: P-glycoprotein (P-gp); experiment: In vivo microdialysis in adult female Wistar rats: effect of local P-gp inhibitor perfusion on ECF levels of phenytoin in cerebral cortex; design: species or system rat
Description: (§1) In vivo microdialysis in Adult Female Wistar Rats
(§2) The combination of phenytoin (Aldrich, Steinheim, Germany) and a P-gp inhibitor, e.g. PSC833) is given via the microdialysis probe in the right frontal cortex, while a probe in the left cortex served as a vehicle control site. Perfusion with the P-gp inhibitor started 15 to 60 minutes prior to i.p. administration of 50 mg/kg phenytoin. • Animals: Adult female Wistar rats (Harlan-Winkelmann, Germany) kept under controlled environmental conditions are used in the study. • Implantation of guide cannulae: Guide cannulae (CMA/12 polyurethane, Camegie Medicine, Sweden) are implanted into the left and right frontal (motor) cortex under anesthesia. The tips of the guide are positioned at rostral +3.2, lateral +3.2 or 3.2 and ventral 2.0 mm to bregma, coordinates according to Paxinos and Watson, The rat brain in stereotaxic coordinates, Sydney, Academic Press, 1986. • Microdialysis procedure: Microdialysis experiments are performed following a recovery period of at least 3 days after surgery. The microdialysis probe is lowered through the guide cannula to a depth of 5.0 mm according to bregma. 14 to 16 h after insertion, perfusion of the probe is started using Ringer solution (in mM 147 Na^+, 2.3 Ca^2+, 4.0 K^+and 155.6 Cr, pH 6.0). […]

[2] = In vivo microdialysis in adult female Wistar rats: extracellular (ECF) phenytoin levels in cerebral cortex in the absence of a P-gp inhibitor; settings: rat, cerebral cortex extracellular fluid (microdialysate), ip, 50 mg/kg phenytoin i.p., after maximum levels reached, read-out: average half-life of decrease of ECF concentrations of phenytoin (converted)
Description: as §1, §2

| Compound | increase of ECF levels of phenytoin above control (ECF plasma ratio of treated site vs vehicle treated controls) ([1]; 2 mM PSC833 via microdialysis probe, phenytoin 50 mg/kg i.p., ECF plasma ratio comparison) | maximum increase of ECF levels of phenytoin compared to untreated site ([1]; 2 mM PSC833 via right microdialysis probe started 15 min before phenytoin 50 mg/kg i.p., left cortex vehicle site) | half-life [2] |
| --- | --- | --- | --- |
| C/C=C/C[C@@H](C)C(=O)[C@H]1C(=O)N[C@@H](C(C)C)C(=O)N(C)CC(=O)N(C)[C@@H](CC(C)C)C(=O)N[C@@H](C(C)C)C(=O)N(C)[C@@H](CC(C)C)C(=O)N[C@@H](C)C(=O)N[C@H](C)C(=O)N(C)[C@@H](CC(C)C)C(=O)N(C)[C@@H](CC(C)C)C(=O)N(C)[C@@H](C(C)C)C(=O)N1C [PSC833, [3′-desoxy-3′-oxo-MeBmt]^1-[Val]^2-Ciclosporin A] | about 150% | 70±20% |  |
| O=C1NC(=O)C(c2ccccc2)(c2ccccc2)N1 [phenytoin, 5,5-diphenyl-2,4-imidazolidinedione] |  |  | ~4 h |
